Where two headings read alike, the source gives them in different places. One block for each compound: values may come before it.
Columns and labels:
[1] = system: female adult citrus red mites; test: whole plant or invertebrate; assay type: in vivo; details: Panonychus citri, in Citrus x aurantium, 48 h, read-out: mortality of the female adult citrus red mites
Description: Thereafter, 10 female adult citrus red mites were released on the Citrus aurantium leaf on the cup. The next day, a miticidal formulation containing a compound of the invention (100 ppm) was prepared by adding an aqueous solution of Sorpol 355 (manufactured by Toho Kagagu Co., Ltd.) to an acetone solution containing the compound of the invention. […] The mortality of the female adult citrus red mites was determined two days after the spraying.

[2] = system: female adult Kanzawa spider mites; test: whole plant or invertebrate; assay type: in vivo; details: Tetranychus kanzawai, in Phaseolus vulgaris, 48 h, read-out: mortality of the female adult Kanzawa spider mites
Description: A kidney bean leaf (3.5 cm×4.5 cm) was placed with the rear side up on the sufficiently soaked non-woven fabric. Thereafter, 20 female adult Kanzawa spider mites were released on the kidney bean leaf on the cup. […] The mortality of the female adult Kanzawa spider mites was determined two days after the spraying.

[3] = system: citrus rust mites; details: sprayed on Citrus aurantium leaf
Text: A plastic cup (trade name: KP-120, manufactured by Konoike Plastic Co., Ltd., Iwata) was filled with tap water, and covered with a lid having a notch cut therein. A piece (4.5×5.5 cm) of non-woven fabric having a slit of about 4 cm in length, the slit being made parallel to the longer side of the fabric at a distance of 1 cm from the edge, was placed on the lid. The 4-cm long, 1-cm wide portion of the fabric was suspended inside the plastic cup through the notch. A Citrus aurantium leaf (3 cm×3 cm) was placed with the front side up on the sufficiently soaked non-woven fabric. To prevent drying and escape of mites, the leaf was covered with a filter paper (diameter: 5 cm, No. 2, Advantec Toyo Kaisha, Ltd.) having two holes of 10 mm in diameter. A leaf on which the citrus rust mites were bred was cut out into pieces with a cork borer (diameter: 2 mm), and the leaf pieces were placed with the front side up on the Citrus aurantium leaf on the non-woven fabric. The next day, the dry leaf pieces were removed. […] Subsequently, 4 ml of a miticidal formulation containing a test compound (100 ppm or 200 ppm), which was prepared according to Test Example 1, was sprayed over the leaf with a spray gun (PB-308 Piece Bon, Olympos, Osaka; 1 kgf/cm^2). […] The mortality of the citrus rust mites was determined two days after the spraying. […]

[4] = system: Two-spotted spider mites (eggs); test: Ovicidal test on two-spotted spider mites (Test Example 2); assay type: in vivo, Tetranychus urticae; details: 500 ppm sprayed on kidney bean leaf; six days after the spraying
Description: A kidney bean leaf (about 3.5×4.5 cm) was placed on the sufficiently soaked non-woven fabric. Female adult two-spotted spider mites (about 5 mites) were released on the leaf, and the leaf was placed in a thermostatic chamber (25±2° C., 16L8D). […] The ovicidal rate of the two-spotted spider mites was determined six days after the spraying.

[5] = system: Two-spotted spider mites; test: whole plant or invertebrate; assay type: in vivo; details: Tetranychus urticae, in Phaseolus vulgaris, 48 h, read-out: mortality of the two-spotted spider mites, 500 ppm sprayed on kidney bean leaf; two days after the spraying
Description: A kidney bean leaf (about 3.5×4.5 cm) was placed on the sufficiently soaked non-woven fabric. Two-spotted spider mites (about twenty mites) were released on the leaf, and the leaf was placed in a thermostatic chamber (25±2° C., 16L8D). The next day, a miticidal formulation containing a compound of the invention (500 ppm) was prepared by adding an aqueous solution of Sorpol 355 (manufactured by Toho Kagagu Co., Ltd.) (100 ppm) to an acetone solution containing the compound of the invention. […] The mortality of the two-spotted spider mites was determined two days after the spraying.

melting point: 136.9 to 137.6 °C
SMILES: C[C@@H]1CN(c2ccc(C(F)(F)F)cn2)CC[C@H]1Oc1cc(-c2cc(F)cc(F)c2)n[nH]1 (relative stereo) [1a-296, trans-4-[3-(3,5-difluorophenyl)pyrazol-5-yloxy]-3-methyl-1-[5-(trifluoromethyl)-2-pyridyl]-piperidine]

SMILES: C[C@@H]1CN(c2ccc(C(F)(F)F)cn2)CC[C@H]1Oc1cc(-c2cc(F)cc(F)c2)nn1CC1OCCO1 (relative stereo) [1a-301, trans-4-[1-(1,3-dioxolan-2-yl)methyl-3-(3,5-difluorophenyl)pyrazol-5-yloxy]-3-methyl-1-[5-(trifluoromethyl)-2-pyridyl]-piperidine]
mortality at 100 ppm [1]: 100%
mortality at 100 ppm [2]: 100%

SMILES: CCCCn1nc(C(F)(F)F)cc1OC1CCN(c2ccc(C(F)(F)F)cn2)CC1 [1a-17, 4-[1-butyl-3-(trifluoromethyl)pyrazol-5-yloxy]-1-[5-(trifluoromethyl)-2-pyridyl]-piperidine]
mortality at 100 ppm [2]: 100%

SMILES: CC(C)(C)n1nc(C(F)(F)F)cc1OC1CCN(c2ccc(C(F)(F)F)cn2)CC1 [1a-26]
Insect mortality (%) ([3]; 100 ppm test compound): 100%
Insect mortality (%) ([3]; 200 ppm test compound): 67%

SMILES: FC(F)(F)c1ccc(N2CCC(Oc3cc(C(F)(F)F)nn3-c3cccc(Cl)c3)CC2)nc1 [1a-62, 4-[1-(3-chlorophenyl)-3-(trifluoromethyl)pyrazol-5-yloxy]-1-[5-(trifluoromethyl)-2-pyridyl]-piperidine]
mortality at 100 ppm [1]: 100%

melting point: 161.8 to 162.4 °C
SMILES: Cn1nc(-c2cc(Cl)cc(Cl)c2)cc1OC1CCN(c2ccc(C(F)(F)F)cn2)CC1 [1a-107, 4-[3-(3,5-dichlorophenyl)-1-methylpyrazol-5-yloxy]-1-[5-(trifluoromethyl)-2-pyridyl]-piperidine]

melting point: 102.5 to 103 °C
SMILES: Cn1nc(C(F)(F)F)cc1OC1CCN(c2ccc(C(F)(F)F)cn2)CC1(C)C (centres unmarked) [1a-215, 3,3-dimethyl-4-[1-methyl-3-(trifluoromethyl)pyrazol-5-yloxy]-1-[5-(trifluoromethyl)-2-pyridyl]-piperidine]

melting point: 105.3 to 105.6 °C
SMILES: CCCCn1nc(C(F)(F)F)cc1S(=O)(=O)C1CCN(c2ccc(C(F)(F)F)cn2)CC1 [1a-218, 4-[1-butyl-3-(trifluoromethyl)pyrazol-5-ylsulfonyl]-1-[5-(trifluoromethyl)-2-pyridyl]-piperidine]

SMILES: CCCCn1nc(-c2ccc(F)cc2)cc1OC1CCN(c2ccc(C(F)(F)F)cn2)CC1 [1a-236]
ovicidal rate of the two-spotted spider mites [4]: 100%

melting point: 133.8 to 134.5 °C
SMILES: FC(F)(F)c1ccc(N2CCC(Oc3cc(C(F)(F)F)n[nH]3)CC2)nc1 [1a-245, 4-[3-(trifluoromethyl)pyrazol-5-yloxy]-1-[5-(trifluoromethyl)-2-pyridyl]-piperidine]

SMILES: Cc1ccc(-n2nc(C(F)(F)F)cc2OC2CCN(c3ccc(C(F)(F)F)cn3)CC2)nc1 [1a-247]
ovicidal rate of the two-spotted spider mites [4]: 100%

SMILES: CCCCn1nc(-c2cc(Cl)ncc2Cl)cc1OC1CCN(c2ccc(C(F)(F)F)cn2)CC1 [1a-249]
ovicidal rate of the two-spotted spider mites [4]: 100%

SMILES: CCOC(=O)n1nc(C(F)(F)F)cc1OC1CCN(c2ccc(C(F)(F)F)cn2)CC1 [1a-288, 4-[1-ethoxycarbonyl-3-(trifluoromethyl)pyrazol-5-yloxy]-1-[5-(trifluoromethyl)-2-pyridyl]-piperidine]
mortality at 500 ppm [5]: ≥ 50%

SMILES: FC(F)(F)CCCn1nc(OC2CCN(c3ccc(C(F)(F)F)cn3)CC2)cc1C(F)(F)F [1b-49]
ovicidal rate of the two-spotted spider mites [4]: 100%

SMILES: COC(Cn1nc(O[C@@H]2[C@@H]3CC[C@H]2CN(c2ccc(C(F)(F)F)cn2)C3)cc1C(F)(F)F)OC [1b-52, 8β-[1-(2,2-dimethoxy)ethyl-5-(trifluoromethyl)pyrazol-3-yloxy]-1-[5-(trifluoromethyl)-2-pyridyl]-3-azabicyclo[3.2.1]octane]
mortality at 500 ppm [5]: ≥ 50%

— US7994094B2, “N-pyridylpiperidine compound, method for producing the same, and pest control agent” (Otsuka Agritechno Co., Ltd., priority 2006, dated 2011)
